Measurements from US20110319392A1, “Thiazole Sulfonamide And Oxazole Sulfonamide Kinase Inhibitors” (priority 2009, published 2011).

Experiments:
EGFR = target: T1, EGFR (Homo sapiens, UniProt P00533); experiment: EGFR substrate phosphorylation assay (HTRF); format: biochemical
T1 construct: made in house; host or cells: baculovirus expression system
Procedure: (§1) Compounds of the present invention were tested for EGFR and ErbB-2 protein tyrosine kinase inhibitory activity in substrate phosphorylation assays using enzymes purified from a baculovirus expression system. Reagent production was conducted essentially as described in Brignola, P. S., et al, (2002) J. Biol. Chem. 277(2):1576-1585.
(§2) The method measures the ability of the isolated enzyme to catalyse the transfer of the gamma-phosphate from ATP onto the tyrosine residue of a biotinylated synthetic peptide referenced “Peptide C” in Brignola, P. S., et al, (2002) J. Biol. Chem. 277(2):1576-1585. The extent of tyrosine phosphorylation was measured using an anti-phosphotyrosine antibody, and quantified by homogenous time-resolved fluorescence (HTRF).
(§3) Reactions were performed in black 384-well polystyrene flat-bottom plates in a final volume of 20 μL. Assays were performed by adding 10 μL of each of the following solutions, Substrate Mix and Enzyme Mix: The Substrate Mix contained 100 mM 3-[N-morpholino]propanesulfonic acid (MOPS) (pH 7.5), 2 mM MnCl2, 20 μM ATP, 0.01% Tween-20, 0.1 mg/mL (BSA), 0.8 uM peptide substrate, and 1 mM dithiothreitol. The Enzyme Mix contained 100 mM MOPS (pH7.5); 0.01% Tween-20; 0.1 mg/mL BSA, and either 0.8 nM EGFR, 10 nM ErbB2, or 1 nM ErbB4. The Enzyme Mix was added to the compound plates and the plates were incubated at 20° C. for 1 hr. The reactions were then started by adding the Substrate Mix.
(§4) After initiating the reaction with the method described above, the reactions were allowed to proceed for 90 minutes at 20° C. The reactions were then terminated by the addition of 20 μL 100 mM EDTA to each well. 40 μL/well of HTRF detection mix were added to the assay plates. The final concentrations of the detection reagents were: 100 mM HEPES (pH7.5), 0.1 mg/mL BSA, 15 nM streptavidin-labeled allophycocyanin (PerkinElmer), and 1 nM europium-labeled anti-phosphotyrosine antibody (Perkin Elmer). Assay plates were left unsealed and were counted in a Wallac Multilabel Counter 1420 (PerkinElmer).
(§5) Compounds under analysis were dissolved in dimethylsulfoxide (DMSO) to 1.0 mM and serially diluted 1 to 3 with DMSO through twelve dilutions. 1 μL of each concentration was transferred to the corresponding well of an assay plate. This creates a final compound concentration range from 0.00027 to 47.6 μM.
(§6) The data for dose responses were plotted as % Inhibition calculated with the data reduction formula 100*(1-(U1−C2)/(C1−C2)) versus concentration of compound where U1 is the unknown value, C1 is the average control value obtained for 4.76% DMSO, and C2 is the average control value obtained for 0.035 M EDTA. Data were fitted with a curve described by:
(§7) where Vmax is the upper asymptote, Y2 is the Y intercept, and K is the IC50. The results for each compound were recorded as pIC50s, calculated as follows: […]

ErbB2 = target: T2, ErbB2 (Homo sapiens, UniProt P04626); experiment: ErbB-2 substrate phosphorylation assay (HTRF); format: biochemical
T2 construct: made in house; host or cells: baculovirus expression system
T2 sequence (P04626 23-1255): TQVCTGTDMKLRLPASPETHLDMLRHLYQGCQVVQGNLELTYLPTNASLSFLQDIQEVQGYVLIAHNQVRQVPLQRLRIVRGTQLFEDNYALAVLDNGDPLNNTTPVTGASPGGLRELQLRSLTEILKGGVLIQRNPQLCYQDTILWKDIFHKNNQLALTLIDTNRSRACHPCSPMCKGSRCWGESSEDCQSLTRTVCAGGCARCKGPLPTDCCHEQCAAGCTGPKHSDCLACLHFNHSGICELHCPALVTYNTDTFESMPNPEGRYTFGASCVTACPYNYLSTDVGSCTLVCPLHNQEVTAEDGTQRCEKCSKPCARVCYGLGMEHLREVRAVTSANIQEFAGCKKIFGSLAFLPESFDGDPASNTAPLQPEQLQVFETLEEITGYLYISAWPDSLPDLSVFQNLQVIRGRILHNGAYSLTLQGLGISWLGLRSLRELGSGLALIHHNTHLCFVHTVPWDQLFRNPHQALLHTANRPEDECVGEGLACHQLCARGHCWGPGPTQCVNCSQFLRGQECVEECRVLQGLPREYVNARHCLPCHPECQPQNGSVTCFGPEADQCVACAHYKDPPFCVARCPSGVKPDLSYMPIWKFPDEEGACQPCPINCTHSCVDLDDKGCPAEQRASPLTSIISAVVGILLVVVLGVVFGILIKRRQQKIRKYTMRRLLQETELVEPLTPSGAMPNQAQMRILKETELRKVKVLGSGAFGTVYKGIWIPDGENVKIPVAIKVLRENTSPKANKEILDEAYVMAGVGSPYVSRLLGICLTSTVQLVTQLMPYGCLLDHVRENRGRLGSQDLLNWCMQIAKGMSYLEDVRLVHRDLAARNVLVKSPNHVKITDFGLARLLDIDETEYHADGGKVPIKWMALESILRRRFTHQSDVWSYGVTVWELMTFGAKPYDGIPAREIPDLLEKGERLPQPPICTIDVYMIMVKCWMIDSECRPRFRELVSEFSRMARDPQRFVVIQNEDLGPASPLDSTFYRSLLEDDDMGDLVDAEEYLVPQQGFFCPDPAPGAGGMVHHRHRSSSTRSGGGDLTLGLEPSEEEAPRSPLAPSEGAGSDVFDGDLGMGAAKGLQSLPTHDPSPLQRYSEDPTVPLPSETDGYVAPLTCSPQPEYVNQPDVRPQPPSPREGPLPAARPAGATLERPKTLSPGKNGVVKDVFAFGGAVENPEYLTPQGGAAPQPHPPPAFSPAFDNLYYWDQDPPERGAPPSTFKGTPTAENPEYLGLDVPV
Procedure: as §1, §2, §3, §4, §5, §6, §7

B-Raf = B-Raf (Homo sapiens, UniProt P15056); experiment: B-Raf Accelerated MEK ATPase assay (BRAMA), Method A or B; format: biochemical; conditions: Method B: final MEK 150 nM, single end point read
Sequence of B-Raf (P15056 whole entry): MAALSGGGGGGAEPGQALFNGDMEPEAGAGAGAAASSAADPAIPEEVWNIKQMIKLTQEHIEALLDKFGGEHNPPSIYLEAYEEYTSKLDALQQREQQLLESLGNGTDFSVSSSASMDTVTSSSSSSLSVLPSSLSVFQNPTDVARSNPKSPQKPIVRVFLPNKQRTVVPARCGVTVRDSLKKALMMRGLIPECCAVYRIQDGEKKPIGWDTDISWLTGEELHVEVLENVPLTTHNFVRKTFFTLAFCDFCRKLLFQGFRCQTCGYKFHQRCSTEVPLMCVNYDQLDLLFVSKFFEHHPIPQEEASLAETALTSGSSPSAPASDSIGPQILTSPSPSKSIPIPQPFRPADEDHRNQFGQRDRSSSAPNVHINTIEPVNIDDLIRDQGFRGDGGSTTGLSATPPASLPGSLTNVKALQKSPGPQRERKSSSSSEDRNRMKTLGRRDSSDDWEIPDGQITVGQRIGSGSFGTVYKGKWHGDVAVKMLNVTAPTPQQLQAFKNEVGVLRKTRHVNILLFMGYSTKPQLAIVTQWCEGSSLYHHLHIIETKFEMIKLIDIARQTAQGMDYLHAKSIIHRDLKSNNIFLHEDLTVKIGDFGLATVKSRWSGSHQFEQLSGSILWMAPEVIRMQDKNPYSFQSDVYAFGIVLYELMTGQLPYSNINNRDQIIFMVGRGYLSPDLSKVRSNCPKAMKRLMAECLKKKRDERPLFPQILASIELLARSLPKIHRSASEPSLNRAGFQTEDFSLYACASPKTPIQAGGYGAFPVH
Procedure: Compounds of the present invention were tested for B-Raf protein serine kinase inhibitory activity in a B-Raf Accelerated MEK ATPase assay (BRAMA). The BRAMA assay is a high sensitivity assay which measures an intrinsic MEK-mediated ATP hydrolysis uncoupled from downstream ERK phosphorylation by coupling the formation of ADP to NADH oxidation through the enzymes pyruvate kinase and lactate dehydrogenase. When ADP production is initiated by addition of catalytic amounts of an activated Raf enzyme and non-phosphorylated MEK, one observes robust ADP production concomitant with Raf-mediated phosphorylation of MEK.
Method A: Specific details of the assay are disclosed in: C. Rominger, M. Schaber, E. May. Assay for B-Raf Activity Based on Intrinsic MEK ATPase Activity. Statutory Invention Registration 11/084,993 (March, 2005). Method B: The method is the same as method A, but includes the following changes: 1) the assay was performed with a final MEK concentration of 150 nM and 2) the assay was read as single end point instead of a kinetic read.

Colo205 tumor cells = experiment: Cell growth inhibition assay (CellTiter-Glo), Colo205; format: cell-based, Human; conditions: Homo sapiens, COLO 205, 72 h; 3 days incubation
Procedure: (§8) Human breast tumor cells (BT474) were cultured in RPMI (Mediatech […]), containing 10% FBS (JRH Biosciences 12176) and 1% penicillin-streptomycin (Invitrogen 15140). Human head and neck tumor cells (HN5) were cultured in high glucose DMEM (Mediatech 50-013-PB) containing 10% FBS and 1% penicillin-streptomycin. Human colon tumor cells (Colo205) were cultured in RPMI (Mediatech 50-020-PB) containing 10% FBS and 1% penicillin-streptomycin. Human melanoma cancer cells (SK-MEL-28) were cultured in EMEM with nonessential amino acids (Mediatech 50-011-PB) containing 10% FBS, 1% sodium pyruvate (JT Baker 3354-04), and 1% penicillin-streptomycin. Human melanoma cancer cells (A375P F11s) were cultured in RPMI (Mediatech 50-020-PB) containing 10% FBS, 1% sodium pyruvate, and 1% penicillin-streptomycin. Human colon cancer cells (HT-29) were cultured in high glucose DMEM (Mediatech 50-013-PB) containing 10% FBS and 1% penicillin-streptomycin. Human melanoma cancer cells (SK-MEL-3) were cultured in McCoy's 5A (50-025-PB) containing 15% FBS, and 1% penicillin-streptomycin. All cell lines were maintained at 37° C. in a humidified 5% CO2, 95% air incubator. Cells were harvested using trypsin/EDTA (Invitrogen 25200), counted using a haemocytometer, and plated. For 96-well assays (using white full-area NUNC plates cat. #136102), cells were plated in 105 μL at the following densities (cells/well): HNS, 500; Colo 205, 500; SK-MEL-28, 500; A375P F11s, 500; HT-29, 500; SK-MEL-3, 500; and BT474, 3000. For 384-well assays (white full-area NUNC plates, cat. #781080), cells were plated in 48 μL at the following densities (cells/well): HNS, 500; Colo205, 500; SK-MEL-28, 500; A375P F11s, 500; HT-29, 500; SK-MEL-3, 500; and BT474, 2000.
(§9) The next day, compounds were diluted as follow: For 96-well assays, 13.5 μL of compound in DMSO were diluted using nine (9) serial 1:3 dilutions of 4.5 μL in 9 of DMSO. Medium (270 μL/well of RPMI with 10% FBS and 1% penicillin-streptomycin) was added to the plates. Aliquots (7 μL) were added to cells in the final assay giving a final DMSO concentration of 0.2%. For 384-well assays, 15 μL of compound in DMSO were diluted using nine (9) serial 1:3 dilutions of 5 μL in 10 μL of DMSO, followed by a further dilution of 5 μL of compound with 95 μL of medium, of which 2 μL were added to cells in the final assay giving a final DMSO concentration of 0.2%. Cells were incubated at 37° C., 5% CO2 for 3 days.
(§10) Total ATP was measured (as a surrogate estimate of cell number) using CellTiter-Glo® reagent (Promega G7571). Briefly, plates were removed from the incubator and allowed to equilibrate to room temperature for 30 minutes. CellTiter-Glo® (25 μL or 55 μL for 384-well or 96-well assays, respectively) reagent was added to each well and plates were shaken on an orbital plate shaker for 2 minutes. Plates were incubated without shaking for a further 30 minutes and read on an LJL Analyst GT reader in luminometer mode with an integration time of 0.5 seconds per well. Percent inhibition of cell growth was calculated relative to DMSO vehicle-treated control wells. Concentration of compound required to give 50% inhibition of vehicle-treated control cell growth (IC50) was interpolated using a 4-parameter fit for determining IC50 using the following equation: Y=A +((B−A)/(1+((C/X)̂D))) where […].

SK-MEL-28 tumor cells = experiment: Cell growth inhibition assay (CellTiter-Glo), SK-MEL-28; format: cell-based, Human; conditions: Homo sapiens, SK-MEL-28, 72 h; 3 days incubation
Procedure: as §8, §9, §10

T1 sequence (P00533 25-1210): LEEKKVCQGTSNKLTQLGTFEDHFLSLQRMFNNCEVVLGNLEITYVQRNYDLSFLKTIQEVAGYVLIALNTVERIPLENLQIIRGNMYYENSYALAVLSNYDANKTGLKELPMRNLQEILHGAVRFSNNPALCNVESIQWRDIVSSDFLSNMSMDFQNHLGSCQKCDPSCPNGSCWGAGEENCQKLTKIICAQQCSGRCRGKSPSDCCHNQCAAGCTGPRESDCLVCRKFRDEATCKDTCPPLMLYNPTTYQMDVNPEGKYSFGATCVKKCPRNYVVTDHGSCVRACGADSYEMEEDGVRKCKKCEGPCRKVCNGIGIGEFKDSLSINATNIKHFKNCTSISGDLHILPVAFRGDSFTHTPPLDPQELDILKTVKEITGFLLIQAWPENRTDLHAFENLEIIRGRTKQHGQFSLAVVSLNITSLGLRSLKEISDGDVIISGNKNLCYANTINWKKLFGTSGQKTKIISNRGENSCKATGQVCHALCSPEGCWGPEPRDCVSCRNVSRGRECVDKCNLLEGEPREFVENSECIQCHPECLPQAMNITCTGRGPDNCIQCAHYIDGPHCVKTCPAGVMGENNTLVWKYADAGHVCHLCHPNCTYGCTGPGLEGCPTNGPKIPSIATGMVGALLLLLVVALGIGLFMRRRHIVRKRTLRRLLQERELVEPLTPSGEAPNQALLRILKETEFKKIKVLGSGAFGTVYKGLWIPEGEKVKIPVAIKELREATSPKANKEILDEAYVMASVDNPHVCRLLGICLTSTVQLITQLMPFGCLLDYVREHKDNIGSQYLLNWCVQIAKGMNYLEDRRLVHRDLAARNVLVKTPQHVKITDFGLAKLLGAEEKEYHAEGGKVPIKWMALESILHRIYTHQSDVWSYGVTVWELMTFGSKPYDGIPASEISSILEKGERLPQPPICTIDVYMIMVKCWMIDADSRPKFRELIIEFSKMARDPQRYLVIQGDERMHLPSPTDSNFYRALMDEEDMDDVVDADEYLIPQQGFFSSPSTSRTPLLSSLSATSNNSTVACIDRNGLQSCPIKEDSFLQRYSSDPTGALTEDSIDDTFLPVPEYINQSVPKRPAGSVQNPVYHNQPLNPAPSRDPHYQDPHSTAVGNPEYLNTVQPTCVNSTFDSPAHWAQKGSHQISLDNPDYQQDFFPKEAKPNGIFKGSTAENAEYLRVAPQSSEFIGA

| SMILES | IC50 (EGFR) | IC50 (ErbB2) | IC50 (B-Raf) | IC50 (Colo205 tumor cells) | IC50 (SK-MEL-28 tumor cells) |
| --- | --- | --- | --- | --- | --- |
| CC(C)c1nc(-c2ccc(F)c(NS(=O)(=O)c3ccccc3C(F)(F)F)c2)c(-c2ccnc(Nc3ccc(N4CCOCC4)nc3)n2)s1 [Example 135] | > 1 µM | 0.1 to 1 µM | < 0.1 µM | 0.1 to 1 µM | 0.1 to 1 µM |
| COc1cc(N2CCN(CCS(C)(=O)=O)CC2)c(C)cc1Nc1nccc(-c2oc(N3CCCC3)nc2-c2cccc(NS(=O)(=O)c3c(F)cccc3F)c2)n1 [Example 136] | 0.1 to 1 µM | 0.1 to 1 µM | 0.1 to 1 µM | 0.1 to 1 µM | 0.1 to 1 µM |
| Cc1cc(CS(C)(=O)=O)ccc1Nc1nccc(-c2sc(C(C)C)nc2-c2ccc(F)c(NS(=O)(=O)c3c(F)cccc3F)c2)n1 [Example 138] | > 1 µM | > 1 µM | < 0.1 µM | 0.1 to 1 µM | < 0.1 µM |
| CC(C)c1nc(-c2cccc(NS(=O)(=O)c3c(F)cccc3F)c2)c(-c2ccnc(Nc3cnc(N4CCOCC4)cc3O)n2)s1 [Example 139] | > 1 µM | > 1 µM | < 0.1 µM | 0.1 to 1 µM | 0.1 to 1 µM |
| CC(C)c1nc(-c2cccc(NS(=O)(=O)c3cccc(OC(F)F)c3)c2)c(-c2ccnc(Nc3ccc(N4CCOCC4)nc3)n2)s1 [Example 141] | > 1 µM | 0.1 to 1 µM | 0.1 to 1 µM | 0.1 to 1 µM | 0.1 to 1 µM |
| CC(C)c1nc(-c2cccc(NS(=O)(=O)c3ccc(C(C)(C)C)cc3)c2)c(-c2ccnc(Nc3ccc(N4CCOCC4)nc3)n2)s1 [Example 142] | > 1 µM | 0.1 to 1 µM | < 0.1 µM | > 1 µM | > 1 µM |
| O=S(=O)(Nc1cccc(-c2nc(-c3ccc(F)c(Cl)c3)sc2-c2ccnc(Nc3ccc(N4CCOCC4)nc3)n2)c1F)c1c(F)cccc1F [Example 143] | > 1 µM | > 1 µM | < 0.1 µM | 0.1 to 1 µM | < 0.1 µM |
| COc1cc(N2CCN(CCS(C)(=O)=O)CC2)c(C)cc1Nc1nccc(-c2sc(C(C)C)nc2-c2cc(NS(=O)(=O)c3c(F)cccc3F)ccc2F)n1 [Example 144] | 0.1 to 1 µM | < 0.1 µM | 0.1 to 1 µM | 0.1 to 1 µM | 0.1 to 1 µM |

The remaining lines, values ahead:

| IC50 (EGFR) | IC50 (ErbB2) | IC50 (B-Raf) | IC50 (Colo205 tumor cells) | IC50 (SK-MEL-28 tumor cells) | SMILES |
| --- | --- | --- | --- | --- | --- |
| > 1 µM | > 1 µM | 0.1 to 1 µM | 0.1 to 1 µM | 0.1 to 1 µM | CC(C)c1nc(-c2ccc(F)c(NS(=O)(=O)c3c(F)cccc3F)c2)c(-c2ccnc(Nc3ncc[nH]3)n2)s1 [Example 147] |
| > 1 µM | > 1 µM | 0.1 to 1 µM | 0.1 to 1 µM | 0.1 to 1 µM | CC(C)c1nc(-c2ccc(F)c(NS(=O)(=O)c3c(F)cccc3F)c2)c(-c2ccnc(Nc3ccncn3)n2)s1 [Example 148] |
| > 1 µM | 0.1 to 1 µM | 0.1 to 1 µM | < 0.1 µM | 0.1 to 1 µM | COc1cc(N2CCN(CCS(C)(=O)=O)CC2)c(C)cc1Nc1nccc(-c2sc(C3CCCC3)nc2-c2cccc(NS(=O)(=O)c3c(F)cccc3F)c2)n1 [Example 149] |
| < 0.1 µM | < 0.1 µM | < 0.1 µM | < 0.1 µM | < 0.1 µM | COc1cc(N2CCN(CCS(C)(=O)=O)CC2)c(C)cc1Nc1nccc(-c2sc(C3CCOCC3)nc2-c2cccc(NS(=O)(=O)c3c(F)cccc3F)c2)n1 [Example 150] |
| < 0.1 µM | < 0.1 µM | < 0.1 µM | < 0.1 µM | 0.1 to 1 µM | CCNc1nc(-c2cccc(NS(=O)(=O)c3c(F)cccc3F)c2)c(-c2ccnc(Nc3cc(C)c(N4CCN(CCS(C)(=O)=O)CC4)cc3OC)n2)s1 [Example 153] |
| > 1 µM | > 1 µM | < 0.1 µM | < 0.1 µM | < 0.1 µM | O=S(=O)(Nc1cccc(-c2nc(N3CCCCC3)sc2-c2ccnc(Nc3ccc(N4CCOCC4)c(F)c3)n2)c1)c1c(F)cccc1F [Example 154] |
| 0.1 to 1 µM | 0.1 to 1 µM | < 0.1 µM | 0.1 to 1 µM | 0.1 to 1 µM | COc1cc(CCN2CCCCC2)c(F)cc1Nc1nccc(-c2sc(C(C)C)nc2-c2cccc(NS(=O)(=O)c3c(F)cccc3F)c2)n1 [Example 156] |
| < 0.1 µM | < 0.1 µM | < 0.1 µM | < 0.1 µM | < 0.1 µM | COc1cc(OC2CCN(CCS(C)(=O)=O)CC2)c(C)cc1Nc1nccc(-c2sc(C(C)C)nc2-c2cccc(NS(=O)(=O)c3c(F)cccc3F)c2)n1 [Example 158] |
